Results on eleven compounds are retold here after ChEMBL document CHEMBL5506038, “Discovery of LC-MI-3: A Potent and Orally Bioavailable Degrader of Interleukin-1 Receptor-Associated Kinase 4 for the Treatment of Inflammatory Diseases” (J Med Chem, 2024).

As usually defined, the inhibition is the share of the control response that was lost under treatment. Broadly, the IC50 is the midpoint of a concentration-inhibition curve. A word on the DC50: it is the concentration giving 50% degradation.

Series [1] concerns the target T1, Interleukin-1 receptor-associated kinase 4 (Homo sapiens) (UniProt Q9NWZ3).
T1 sequence (whole entry): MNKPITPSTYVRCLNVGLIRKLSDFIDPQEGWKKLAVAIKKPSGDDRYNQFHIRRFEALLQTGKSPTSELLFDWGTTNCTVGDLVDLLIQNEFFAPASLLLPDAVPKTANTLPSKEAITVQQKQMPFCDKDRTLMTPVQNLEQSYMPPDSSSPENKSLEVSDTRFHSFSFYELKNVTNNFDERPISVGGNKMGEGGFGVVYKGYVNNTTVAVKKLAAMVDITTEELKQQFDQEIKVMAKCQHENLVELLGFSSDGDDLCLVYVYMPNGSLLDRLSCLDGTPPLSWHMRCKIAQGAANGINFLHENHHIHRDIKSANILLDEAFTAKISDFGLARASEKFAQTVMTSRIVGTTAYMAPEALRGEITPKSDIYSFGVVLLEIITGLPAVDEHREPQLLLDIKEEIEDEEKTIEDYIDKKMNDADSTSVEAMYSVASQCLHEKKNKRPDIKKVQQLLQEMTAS
Nature of the series: (§1) Inhibition of IRAK4 (unknown origin).

For series [2], the target named is T2, Interleukin-1 receptor-associated kinase 4 (Homo sapiens, UniProt Q9NWZ3).
T2 sequence (Q9NWZ3 whole entry): T1 sequence (whole entry)
The series is described as §1.

Series [3] deals with Protein cereblon/Interleukin-1 receptor-associated kinase 4 (Mus musculus) (UniProt Q8C7D2+Q8R4K2). Nature of the series: PROTAC activity at IRAK4/CRBN in mouse BaF3 cells assessed as reduction in IRAK4 level at 100 nM incubated for 12 hrs by Western blot analysis relative to control. It is filed as cell-based. Also noted: scale not given: the % may be the effect or the level left.
Chain of Protein cereblon/Interleukin-1 receptor-associated kinase 4 (Mus musculus) (Q8C7D2 whole entry, looked up, one chain of several): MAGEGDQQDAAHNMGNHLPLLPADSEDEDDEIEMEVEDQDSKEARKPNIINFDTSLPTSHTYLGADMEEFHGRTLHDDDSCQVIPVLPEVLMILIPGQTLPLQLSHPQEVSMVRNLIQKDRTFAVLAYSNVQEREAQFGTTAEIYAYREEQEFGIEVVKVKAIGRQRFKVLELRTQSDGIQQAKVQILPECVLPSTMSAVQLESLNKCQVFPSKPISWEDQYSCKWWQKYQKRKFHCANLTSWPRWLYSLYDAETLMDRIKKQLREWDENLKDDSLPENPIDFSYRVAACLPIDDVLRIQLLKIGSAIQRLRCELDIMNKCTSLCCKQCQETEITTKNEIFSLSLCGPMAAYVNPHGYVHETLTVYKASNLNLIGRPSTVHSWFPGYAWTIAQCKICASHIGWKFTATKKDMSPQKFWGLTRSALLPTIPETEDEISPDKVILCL

The target in series [4] is Protein cereblon/Interleukin-1 receptor-associated kinase 4 (Homo sapiens, UniProt Q9NWZ3+Q96SW2). The series can be described thus: PROTAC activity at IRAK4/CRBN in HEK293T cells assessed as induction of IRAK4 degradation by immunoblotting analysis. The series is classed as cell-based.
Chain of Protein cereblon/Interleukin-1 receptor-associated kinase 4 (Q96SW2 whole entry, one chain of several): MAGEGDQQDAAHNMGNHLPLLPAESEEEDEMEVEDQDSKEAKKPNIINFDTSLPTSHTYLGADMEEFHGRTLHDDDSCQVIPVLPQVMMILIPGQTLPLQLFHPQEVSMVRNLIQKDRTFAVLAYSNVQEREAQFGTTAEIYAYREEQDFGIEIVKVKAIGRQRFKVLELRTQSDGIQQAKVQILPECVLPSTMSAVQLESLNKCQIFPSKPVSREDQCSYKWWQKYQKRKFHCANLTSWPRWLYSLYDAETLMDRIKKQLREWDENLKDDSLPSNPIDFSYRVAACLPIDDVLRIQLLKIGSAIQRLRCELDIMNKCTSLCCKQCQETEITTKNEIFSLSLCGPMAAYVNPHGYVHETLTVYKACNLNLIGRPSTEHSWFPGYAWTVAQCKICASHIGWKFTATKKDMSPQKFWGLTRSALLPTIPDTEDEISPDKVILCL
Series [5] can be described thus: Drug metabolism in rat hepatocyte assessed as amide hydrolysis-mediated metabolite formation by LC-MS/MS analysis. The series is classed as ADME, cell-based. The following applies: hepatocytes.
In series [6] the target is T3, Interleukin-1 receptor-associated kinase 4 (Mus musculus) (UniProt Q8R4K2).
T3 sequence (whole entry): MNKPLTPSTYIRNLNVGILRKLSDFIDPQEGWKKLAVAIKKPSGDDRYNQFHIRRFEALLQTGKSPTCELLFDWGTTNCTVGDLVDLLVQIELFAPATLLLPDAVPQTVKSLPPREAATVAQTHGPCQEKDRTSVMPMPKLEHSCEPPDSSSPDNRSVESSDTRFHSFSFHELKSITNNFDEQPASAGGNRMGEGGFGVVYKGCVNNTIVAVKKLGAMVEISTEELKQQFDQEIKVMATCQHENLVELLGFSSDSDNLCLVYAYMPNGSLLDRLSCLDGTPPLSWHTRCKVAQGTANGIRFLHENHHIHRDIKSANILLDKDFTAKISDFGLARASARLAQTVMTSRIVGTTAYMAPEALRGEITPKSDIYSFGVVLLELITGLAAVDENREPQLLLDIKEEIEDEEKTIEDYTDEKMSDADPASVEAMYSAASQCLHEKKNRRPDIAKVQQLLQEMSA
Nature of the series: Inhibition of IRAK4 in LPS-induced mouse RAW264.7 cells assessed as reduction in JNK level at 1 to 5 uM pretreated with LPS for 1 hr followed by compound administration and measured after 2 hrs by Western blotting analysis. The series is classed as cell-based. As to conditions: dose 1-5 µM. (A western blot detects proteins with antibodies after separation by electrophoresis.)

Series [7] has as its target T3, Interleukin-1 receptor-associated kinase 4 (Mus musculus). The series can be described thus: Inhibition of IRAK4 in LPS-induced mouse RAW264.7 cells assessed as reduction in ERK level at 1 to 5 uM pretreated with LPS for 1 hr followed by compound administration and measured after 2 hrs by Western blotting analysis. The series is classed as cell-based. The following applies: dose 1-5 µM.

For series [8] the target is unchanged. The series can be described thus: Inhibition of IRAK4 in LPS-induced mouse RAW264.7 cells assessed as reduction in p38 level at 1 to 5 uM pretreated with LPS for 1 hr followed by compound administration and measured after 2 hrs by Western blotting analysis. As to conditions: dose 1-5 µM. The series is classed as cell-based.
Series [9] has the same target. The series can be described thus: Inhibition of IRAK4 in LPS-induced mouse RAW264.7 cells assessed as effect on IkappaB-alpha level at 1 to 5 uM pretreated with LPS for 1 hr followed by compound administration and measured after 2 hrs by Western blotting analysis. It is filed as cell-based. As to conditions: dose 1-5 µM.
The target is the same in series [10]. The series can be described thus: Inhibition of IRAK4 in LPS-induced mouse RAW264.7 cells assessed as reduction in p65 nuclear translocation at 1 to 5 uM pretreated with LPS for 1 hr followed by compound administration and measured after 2 hrs by immunofluorescence analysis. It is filed as cell-based. The following applies: dose 1-5 µM.
In series [11] the test system is RAW264.7. The series can be described thus: Activation of NF-kappaB pathway in LPS-induced mouse RAW264.7 cells at 5 uM pretreated with compound for 1 hr followed by LPS-induction and measured after 6 hrs by flow cytometry analysis. The series is classed as cell-based. The following applies: filed as activator, time 7.0 hrs. For orientation: A flow cytometer gives signals particle by particle.

Series [12] addresses Mitogen-activated protein kinase kinase kinase 19 (Homo sapiens) (UniProt Q56UN5). Nature of the series: Inhibition of YSK4 (unknown origin) at 1 uM relative to control.
Series [13] has as its target Mitogen-activated protein kinase kinase kinase kinase 4 (Homo sapiens) (UniProt O95819). Nature of the series: Inhibition of MAP4K4 (unknown origin) at 1 uM relative to control.
Series [14] addresses Dual specificity mitogen-activated protein kinase kinase 5 (Homo sapiens) (UniProt Q13163). The series can be described thus: Inhibition of MEK5 (unknown origin) at 1 uM relative to control.
Series [15] concerns the target Citron Rho-interacting kinase (Homo sapiens) (UniProt O14578). The series can be described thus: Inhibition of CIT (unknown origin) at 1 uM relative to control.
Series [16] has as its target Tyrosine-protein kinase JAK1 (Homo sapiens) (UniProt P23458). The series can be described thus: Inhibition of JAK1 (unknown origin) at 1 uM relative to control.
The target in series [17] is Tyrosine-protein kinase JAK3 (Homo sapiens) (UniProt P52333). Nature of the series: Inhibition of JAK3 (unknown origin) at 1 uM relative to control.
Chain of Tyrosine-protein kinase JAK3 (Homo sapiens) (P52333 whole entry): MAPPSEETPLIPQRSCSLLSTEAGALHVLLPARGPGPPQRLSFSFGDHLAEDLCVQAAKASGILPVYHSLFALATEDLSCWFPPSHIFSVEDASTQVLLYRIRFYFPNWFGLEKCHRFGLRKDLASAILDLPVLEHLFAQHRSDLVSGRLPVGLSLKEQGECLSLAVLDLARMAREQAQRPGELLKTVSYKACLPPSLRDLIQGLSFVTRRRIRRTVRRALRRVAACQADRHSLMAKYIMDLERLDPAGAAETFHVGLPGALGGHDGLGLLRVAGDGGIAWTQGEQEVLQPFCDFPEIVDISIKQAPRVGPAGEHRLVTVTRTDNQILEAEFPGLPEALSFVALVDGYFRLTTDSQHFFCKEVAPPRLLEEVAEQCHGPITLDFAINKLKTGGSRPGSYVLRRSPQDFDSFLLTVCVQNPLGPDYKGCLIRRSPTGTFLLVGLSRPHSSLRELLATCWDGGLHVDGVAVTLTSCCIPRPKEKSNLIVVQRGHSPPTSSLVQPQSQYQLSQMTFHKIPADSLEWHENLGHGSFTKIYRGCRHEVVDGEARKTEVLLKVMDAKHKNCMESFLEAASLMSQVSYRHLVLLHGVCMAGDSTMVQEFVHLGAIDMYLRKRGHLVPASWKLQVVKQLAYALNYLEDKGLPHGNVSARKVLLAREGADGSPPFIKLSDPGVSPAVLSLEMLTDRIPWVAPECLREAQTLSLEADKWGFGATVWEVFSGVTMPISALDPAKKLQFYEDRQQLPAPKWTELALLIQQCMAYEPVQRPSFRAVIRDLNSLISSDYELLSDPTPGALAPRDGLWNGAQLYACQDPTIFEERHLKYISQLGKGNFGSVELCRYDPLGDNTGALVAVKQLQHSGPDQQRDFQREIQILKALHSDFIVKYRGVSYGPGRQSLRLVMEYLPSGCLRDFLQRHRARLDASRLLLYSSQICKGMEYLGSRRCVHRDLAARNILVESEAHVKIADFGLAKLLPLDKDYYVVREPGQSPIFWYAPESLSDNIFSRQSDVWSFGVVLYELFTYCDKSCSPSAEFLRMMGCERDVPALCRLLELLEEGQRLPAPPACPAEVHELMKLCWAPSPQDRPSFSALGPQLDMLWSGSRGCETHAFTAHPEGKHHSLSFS
The target of series [18] is Serine/threonine-protein kinase RIO1 (Homo sapiens) (UniProt Q9BRS2). Nature of the series: Inhibition of RIOK1 (unknown origin) at 1 uM relative to control.
Chain of Serine/threonine-protein kinase RIO1 (Homo sapiens) (Q9BRS2 whole entry): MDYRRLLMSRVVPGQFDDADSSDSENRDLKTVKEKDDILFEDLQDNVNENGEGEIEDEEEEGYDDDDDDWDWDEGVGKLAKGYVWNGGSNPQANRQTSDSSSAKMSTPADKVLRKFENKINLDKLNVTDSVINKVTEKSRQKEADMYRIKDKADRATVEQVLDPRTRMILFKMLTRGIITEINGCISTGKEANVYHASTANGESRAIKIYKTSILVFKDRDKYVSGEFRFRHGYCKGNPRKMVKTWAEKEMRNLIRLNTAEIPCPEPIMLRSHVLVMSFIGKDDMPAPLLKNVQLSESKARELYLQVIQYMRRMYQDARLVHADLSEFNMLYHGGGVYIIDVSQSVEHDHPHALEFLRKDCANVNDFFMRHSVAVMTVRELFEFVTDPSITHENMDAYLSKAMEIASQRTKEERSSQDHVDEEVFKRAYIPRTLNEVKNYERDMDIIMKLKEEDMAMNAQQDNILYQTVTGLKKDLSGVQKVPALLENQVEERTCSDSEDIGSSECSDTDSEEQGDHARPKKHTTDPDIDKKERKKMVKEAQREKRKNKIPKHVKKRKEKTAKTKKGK
Series [19] deals with TRAF2 and NCK-interacting protein kinase (Homo sapiens) (UniProt Q9UKE5). Nature of the series: Inhibition of TNIK (unknown origin) at 1 uM relative to control.
Series [20] concerns the target Serine/threonine-protein kinase RIO3 (Homo sapiens) (UniProt O14730). The series can be described thus: Inhibition of RIOK3 (unknown origin) at 1 uM relative to control.
The target in series [21] is Interleukin-1 receptor-associated kinase 1 (Homo sapiens) (UniProt P51617). The series can be described thus: Inhibition of IRAK1 (unknown origin) at 1 uM relative to control.
Chain of Interleukin-1 receptor-associated kinase 1 (Homo sapiens) (P51617 whole entry, looked up): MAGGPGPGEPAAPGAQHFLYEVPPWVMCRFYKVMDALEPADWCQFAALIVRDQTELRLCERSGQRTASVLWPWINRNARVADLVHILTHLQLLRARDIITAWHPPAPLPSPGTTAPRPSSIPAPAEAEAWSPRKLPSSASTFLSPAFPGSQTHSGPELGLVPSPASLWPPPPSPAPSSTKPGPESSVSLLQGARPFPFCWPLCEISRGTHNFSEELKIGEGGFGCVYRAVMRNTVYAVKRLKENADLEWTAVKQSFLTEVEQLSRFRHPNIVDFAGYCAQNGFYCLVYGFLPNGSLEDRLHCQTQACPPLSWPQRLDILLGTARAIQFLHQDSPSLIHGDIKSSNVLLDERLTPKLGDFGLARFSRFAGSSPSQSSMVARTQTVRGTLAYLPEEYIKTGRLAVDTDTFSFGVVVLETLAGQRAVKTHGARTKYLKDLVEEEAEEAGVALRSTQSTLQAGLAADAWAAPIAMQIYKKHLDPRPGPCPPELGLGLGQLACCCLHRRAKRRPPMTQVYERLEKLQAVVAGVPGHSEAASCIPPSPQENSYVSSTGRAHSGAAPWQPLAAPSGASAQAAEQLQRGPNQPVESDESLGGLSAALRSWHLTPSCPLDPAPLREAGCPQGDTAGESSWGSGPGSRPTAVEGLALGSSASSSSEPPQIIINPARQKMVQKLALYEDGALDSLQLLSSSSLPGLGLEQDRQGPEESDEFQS
The target of series [22] is MAP kinase p38 (Mus musculus) (UniProt P47811+O08911+Q9WUI1+Q9Z1B7). Nature of the series: Inhibition of MAPK phosphorylation in LPS-induced mouse RAW264.7 cells at 1 uM pretreated with compound for 1 hr followed by LPS-induction and measured after 2 hrs by Western blot analysis. The series is classed as cell-based. As to conditions: time 3.0 hrs.
The test system of series [23] is RAW264.7. The series can be described thus: Activation of NF-kappaB pathway in LPS-induced mouse RAW264.7 cells expressing EGFP at 5 uM pretreated with compound for 1 hr followed by LPS-induction and measured after 6 hrs by flow cytometry analysis. The following applies: filed as activator, time 7.0 hrs. The series is classed as cell-based.
Series [24] concerns RAW264.7. Nature of the series: Activation of NF-kappaB pathway in LPS-induced mouse RAW264.7 cells expressing EGFP at 5 uM pretreated with compound for 1 hr followed by LPS-induction and measured at 15 min by flow cytometry analysis. As to conditions: filed as activator, time 75.0 min. It is filed as cell-based.
Another series relates to Mus musculus. The series can be described thus: Anti-inflammatory activity against LPS-induced acute […] injury C57BL/6 mouse model assessed as reduction in ERK level at 20 mg/kg, IG pretreated with compound for 12 hrs followed by LPS-induction and measured after 6 hrs. It is filed as functional, organism-based. As to conditions: time 18.0 hrs.

Activity calls are given as the source filed them. The calls are words filed in the database; no cut-off is given here.

Chain of Mitogen-activated protein kinase kinase kinase 19 (Homo sapiens) (Q56UN5 whole entry): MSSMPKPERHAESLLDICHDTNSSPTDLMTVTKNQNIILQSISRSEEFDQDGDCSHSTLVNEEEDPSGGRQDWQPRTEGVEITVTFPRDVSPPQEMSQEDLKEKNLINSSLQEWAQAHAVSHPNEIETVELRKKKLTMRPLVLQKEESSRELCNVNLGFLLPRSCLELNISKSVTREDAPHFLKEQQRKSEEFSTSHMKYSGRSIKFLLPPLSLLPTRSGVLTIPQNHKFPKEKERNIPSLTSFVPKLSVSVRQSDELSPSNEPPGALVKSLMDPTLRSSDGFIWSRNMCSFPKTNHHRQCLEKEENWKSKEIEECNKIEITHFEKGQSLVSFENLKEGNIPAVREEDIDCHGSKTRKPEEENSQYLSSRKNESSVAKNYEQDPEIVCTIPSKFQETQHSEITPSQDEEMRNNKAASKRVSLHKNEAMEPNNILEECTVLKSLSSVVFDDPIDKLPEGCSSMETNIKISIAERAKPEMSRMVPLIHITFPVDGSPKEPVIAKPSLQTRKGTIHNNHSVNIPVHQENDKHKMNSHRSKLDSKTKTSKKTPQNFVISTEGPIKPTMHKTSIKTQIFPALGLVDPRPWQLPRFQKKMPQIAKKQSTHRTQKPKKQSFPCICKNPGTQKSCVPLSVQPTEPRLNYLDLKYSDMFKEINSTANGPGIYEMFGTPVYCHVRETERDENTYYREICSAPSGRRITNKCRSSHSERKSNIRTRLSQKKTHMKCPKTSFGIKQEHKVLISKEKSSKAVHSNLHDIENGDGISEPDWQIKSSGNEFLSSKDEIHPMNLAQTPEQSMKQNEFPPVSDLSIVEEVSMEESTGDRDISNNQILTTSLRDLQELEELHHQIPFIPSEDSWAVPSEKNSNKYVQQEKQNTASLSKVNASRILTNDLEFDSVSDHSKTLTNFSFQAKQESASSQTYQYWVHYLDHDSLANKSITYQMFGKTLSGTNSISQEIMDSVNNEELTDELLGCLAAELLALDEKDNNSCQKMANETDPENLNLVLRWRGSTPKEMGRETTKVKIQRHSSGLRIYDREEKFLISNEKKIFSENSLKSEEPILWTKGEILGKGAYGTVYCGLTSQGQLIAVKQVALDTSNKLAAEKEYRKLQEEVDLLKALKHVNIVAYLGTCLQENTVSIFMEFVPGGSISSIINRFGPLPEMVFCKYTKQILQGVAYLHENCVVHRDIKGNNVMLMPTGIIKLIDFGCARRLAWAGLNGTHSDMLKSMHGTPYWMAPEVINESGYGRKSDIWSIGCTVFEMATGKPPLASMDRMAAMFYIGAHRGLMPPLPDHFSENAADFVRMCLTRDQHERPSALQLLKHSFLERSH
Chain of Dual specificity mitogen-activated protein kinase kinase 5 (Homo sapiens) (Q13163 whole entry): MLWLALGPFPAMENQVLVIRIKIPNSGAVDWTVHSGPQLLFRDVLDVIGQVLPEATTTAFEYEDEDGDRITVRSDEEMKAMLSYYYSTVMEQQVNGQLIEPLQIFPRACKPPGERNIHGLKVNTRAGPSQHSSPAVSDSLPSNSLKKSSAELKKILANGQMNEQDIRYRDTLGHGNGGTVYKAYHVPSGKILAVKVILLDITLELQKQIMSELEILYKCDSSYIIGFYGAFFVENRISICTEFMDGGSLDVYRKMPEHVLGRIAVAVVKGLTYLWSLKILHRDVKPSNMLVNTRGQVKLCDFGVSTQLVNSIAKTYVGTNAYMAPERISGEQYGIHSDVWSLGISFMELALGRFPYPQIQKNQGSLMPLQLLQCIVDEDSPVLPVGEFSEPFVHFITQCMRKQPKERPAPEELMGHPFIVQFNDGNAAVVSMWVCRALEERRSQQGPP

Regarding `COc1cc(N2CCN(C(=O)C3CCN(c4ccc5c(c4)C(=O)N(C4CCC(=O)NC4=O)C5=O)CC3)CC2)ccc1NC(=O)c1cccc(-c2ccn[nH]2)n1` (stereo not given), in series [1], the inhibition result was “inactive”.
As to `COc1cc(N2CCN(C(=O)C3CN(c4ccc5c(c4)C(=O)N(C4CCC(=O)NC4=O)C5=O)C3)CC2)ccc1NC(=O)c1cccc(-c2ccn[nH]2)n1` (stereo not given), the half-maximal inhibitory concentration (IC50) in [2] is under 100 nM. For the same compound, in series [3], the Activity stood at 26%.
For `COc1cc(N2CCN(CC(=O)NCCNc3cccc4c3C(=O)N(C3CCC(=O)NC3=O)C4=O)CC2)ccc1NC(=O)c1cccc(-c2ccn[nH]2)n1` (stereo not given), in that order: under 100 nM and 63%.
For `COc1cc(N2CCN(C(=O)CCCCCCCCCCCNc3cccc4c3C(=O)N(C3CCC(=O)NC3=O)C4=O)CC2)ccc1NC(=O)c1cccc(-c2ccn[nH]2)n1` (stereo not given), in that order: under 100 nM and 32%.
In the case of `COc1cc(N2CCN(CC(=O)NCCOCCOCCNC(=O)C3CCN(c4ccc5c(c4)C(=O)N(C4CCC(=O)NC4=O)C5=O)CC3)CC2)ccc1NC(=O)c1cccc(-c2ccn[nH]2)n1` (stereo not given), the inhibition entry in series [1] was “inactive”.
As to `COc1cc(N2CCN(C(=O)CCCCCNc3cccc4c3C(=O)N(C3CCC(=O)NC3=O)C4=O)CC2)ccc1NC(=O)c1cccc(-c2ccn[nH]2)n1` (stereo not given), in series [2], the half-inhibitory concentration (IC50) was under 100 nM. Further, in series [3], the Activity turned out to be 55%.
As for `CC(C)Nc1cc(-n2ccc3cc(C#N)cnc32)ncc1C(=O)NC1CCC(C(=O)NCCOCCNC(=O)COc2cccc3c2C(=O)N(C2CCC(=O)NC2=O)C3=O)CC1` (stereo not given), in series [4], the DC50 turned out to be 405 nM.
On to `COc1cc(N2CCN(CC(=O)NCCOCCOCCOCCOCCNc3cccc4c3C(=O)N(C3CCC(=O)NC3=O)C4=O)CC2)ccc1NC(=O)c1cccc(-c2ccn[nH]2)n1` (stereo not given), for which the inhibition entry in series [1] was “inactive”.
On to `COc1cc(N2CCN(CC(=O)NCCCCCCCCNc3cccc4c3C(=O)N(C3CCC(=O)NC3=O)C4=O)CC2)ccc1NC(=O)c1cccc(-c2ccn[nH]2)n1` (stereo not given), for which, in series [1], the inhibition entry was “inactive”.
Consider `COc1cc(N2CCN(CC(=O)NCCOCCOCCNc3cccc4c3C(=O)N(C3CCC(=O)NC3=O)C4=O)CC2)ccc1NC(=O)c1cccc(-c2ccn[nH]2)n1` (stereo not given), for which the Drug metabolism result in series [5] was “Metabolite_Detected”.
`COc1cc(N2CCOCC2)ccc1NC(=O)c1cccc(-c2ccn[nH]2)n1`: the inhibition result in series [6], in series [7], in series [8], in series [9], in series [10] and in [22] was “Active” each time. Also, the result with RAW264.7 [11], in the series with RAW264.7 [23], with RAW264.7 [24] and in the series with Mus musculus was Active. The Activity in series [3] was determined as 100%. In addition, the inhibition entry in series [12], in [13], in [14], in series [15], in series [16] and in [17] was “inactive” in each case. Moreover, the inhibition result in [18] and in series [19] was “inactive” throughout. For the same compound, the inhibition in series [20] and in [21] was over 95% in each case.
